# Measured values: ChEMBL document CHEMBL1201862, “PubChem BioAssay data set” (2004)
# Active and inactive are the calls of the source.
# Tests used:
# [1] = Luminescence Cell-Based Dose Retest to Confirm Inhibitors of Cancer Stem Cells. [Related pubchem assays (depositor defined):AID2717, AID2721]; format: functional; details: Homo sapiens
# [2] = molecular target: FAD-linked sulfhydryl oxidase ALR (Homo sapiens, UniProt P55789); assay: ALR-catalysed DTT oxidation blockers – biochemical, H2O2 detection, luminescence, cherry-pick, dose response (AID 493248)
# HeLa = assay: ATP-based viability loss in HeLa cells – cell-based, CellTiter-Glo luminescence, cherry-pick samples, cytotoxicity control for MITF activator project, dose response (AID 540259); format: functional; details: Homo sapiens
# H9c2 = assay: cells; format: functional, cell-based; details: Rattus norvegicus, H9c2, Myocardium;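 further: confirmatory concentration-response retest of ultra-high-throughput screening hits for modulation of myocardial damage; cell death induced by hydrogen peroxide oxidative stress; compound pretreatment for 60 min then peroxide exposure for 2 h; potency is for protecting the cells against peroxide damage rather than for killing them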
# Paired box protein Pax-8 = Paired box protein Pax-8 (Homo sapiens, UniProt Q06710); assay: PAX8 transcriptional activity inhibition in RMG-I – RMG-I cells, luciferase, cherry-pick, dose response (AID 687027); format: functional, cell-based;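 further: luciferase reporter driven by Pax8 target thyroperoxidase promoter measured by SteadyGlo luminescence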
# Cytochrome P450 2C19 = Cytochrome P450 2C19 (Homo sapiens, UniProt P33261); assay: Cytochrome panel assay with activity outcomes. Panel member name: p450-cyp2c19 Compounds with AC50 equal or less than 10 uM are considered active; format: functional; details: read-out: AC50
# Cytochrome P450 2D6 = Cytochrome P450 2D6 (Homo sapiens, UniProt P10635);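 further: CYP2D6 member of a cytochrome P450 panel assay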
# Cytochrome P450 1A2 = molecular target: T1, Cytochrome P450 1A2 (Homo sapiens, UniProt P05177);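 further: PubChem cytochrome P450 panel assay, CYP1A2 panel member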
# T1 sequence (P05177 whole entry): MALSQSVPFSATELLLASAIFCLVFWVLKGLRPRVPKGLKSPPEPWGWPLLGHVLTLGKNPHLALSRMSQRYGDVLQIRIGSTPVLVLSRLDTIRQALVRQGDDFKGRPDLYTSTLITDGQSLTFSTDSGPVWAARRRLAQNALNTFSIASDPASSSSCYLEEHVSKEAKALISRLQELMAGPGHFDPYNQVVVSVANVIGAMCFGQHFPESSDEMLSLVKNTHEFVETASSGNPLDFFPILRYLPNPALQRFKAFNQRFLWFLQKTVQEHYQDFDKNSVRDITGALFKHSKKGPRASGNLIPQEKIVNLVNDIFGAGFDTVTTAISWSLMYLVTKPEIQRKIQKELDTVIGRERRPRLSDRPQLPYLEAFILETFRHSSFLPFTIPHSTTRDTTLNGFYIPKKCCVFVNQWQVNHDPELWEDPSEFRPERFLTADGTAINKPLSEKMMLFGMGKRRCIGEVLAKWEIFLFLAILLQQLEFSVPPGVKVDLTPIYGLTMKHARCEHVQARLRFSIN
# Cytochrome P450 2C9 = Cytochrome P450 2C9 (Homo sapiens, UniProt P11712)
# [3] = luciferase reporter signal suppression in cells – H4 neuroglioma cells, luminescence, dose response (AID 1990); format: functional, cell-based
# [4] = Luminescence Cell-Based Dose Response HTS to Identify Inhibitors of 5'UTR Stem-Loop Driven Prion Protein mRNA Translation in H4 Neuroglioblastoma Cells. [Related pubchem assays: 1827 (Project Summary), 1813 (Primary HTS)]; format: functional
# [5] = alpha-synuclein stem-loop luciferase translation blockers – H4 neuroglioma cells, luminescence, confirmation (AID 1988); format: functional, cell-based
# [6] = molecular target: Luciferin 4-monooxygenase (Photinus pyralis, UniProt P08659); assay: inhibition of purified Photinus pyralis luciferase – biochemical, luminescence, dose response (AID 1891)
# [7] = Luminescence Cell-Based Dose Confirmation HTS to Identify Inhibitors of Platelet Dense Granule Release. [Related pubchem assays: 1663 (Primary HTS), 1678 (Summary of Project)]; format: functional
# [8] = molecular target: T2, Rac GTPase-activating protein 1 (Homo sapiens, UniProt Q9H0H5); assay: blockers of MgcRacGAP-driven Rac1 GTP hydrolysis – biochemical, ADP Hunter fluorescence, primary and confirmatory, confirmation (AID 624330); format: functional
# T2 sequence (Q9H0H5 whole entry): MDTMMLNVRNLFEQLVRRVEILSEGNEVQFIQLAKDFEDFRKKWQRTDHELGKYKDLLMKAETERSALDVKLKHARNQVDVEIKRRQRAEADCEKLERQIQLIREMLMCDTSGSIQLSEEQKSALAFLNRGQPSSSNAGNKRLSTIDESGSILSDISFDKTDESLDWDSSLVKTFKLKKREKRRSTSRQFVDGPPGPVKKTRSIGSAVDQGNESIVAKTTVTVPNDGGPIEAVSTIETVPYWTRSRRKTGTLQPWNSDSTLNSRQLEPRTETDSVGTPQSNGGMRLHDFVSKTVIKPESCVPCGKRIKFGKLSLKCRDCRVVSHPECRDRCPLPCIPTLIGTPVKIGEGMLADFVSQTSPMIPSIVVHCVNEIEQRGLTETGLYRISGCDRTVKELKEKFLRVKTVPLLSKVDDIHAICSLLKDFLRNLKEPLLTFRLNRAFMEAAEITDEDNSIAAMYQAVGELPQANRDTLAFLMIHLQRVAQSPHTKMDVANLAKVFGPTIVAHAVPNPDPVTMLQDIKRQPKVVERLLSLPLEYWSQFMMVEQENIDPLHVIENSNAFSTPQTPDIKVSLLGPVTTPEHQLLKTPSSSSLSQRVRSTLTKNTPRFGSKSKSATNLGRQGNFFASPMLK
# Cytochrome P450 3A4 = Cytochrome P450 3A4 (Homo sapiens, UniProt P08684);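 further: CYP3A4 tested as one member of a cytochrome P450 panel screen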
# Nonstructural protein 1 = Nonstructural protein 1 (Influenza A virus, UniProt Q194T2); format: functional, Influenza A virus (A/California/07/2009(H1N1))
# [9] = reduction of Shn3 3'UTR-driven luciferase in osteoblasts – cell-based, Clone20 osteoblasts, firefly luciferase, cherry-picked, dose response (AID 624132); format: functional;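 further: firefly luciferase luminescence from reporter carrying the Shn3 3'UTR in osteoblasts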
# [10] = loss of viability in HepG2 cells – cell-based, CellTiter-Glo, cherry-picked, cytotoxicity control for Shn3 inhibitor project, dose response (AID 624134); format: functional
# [11] = non-specific 3'UTR reporter inhibition in Clone20-Shn3RL – cell-based, Renilla luciferase, cherry-picked, counter-screen for Shn3 inhibitor project, dose response (AID 624133); format: functional
# Genome polyprotein = Genome polyprotein (dengue virus type 2, UniProt P29990); assay: flavivirus cap methylation enzyme inhibition – biochemical, confirmation dose response, primary screen (AID 588689); format: functional
# [12] = molecular target: T3, Calpain-2 catalytic subunit (Sus scrofa, UniProt P43367); assay: m-calpain protease blockers, concentration series – biochemical, fluorogenic peptide substrate, dose response (AID 1420); format: functional
# T3 sequence (P43367 whole entry): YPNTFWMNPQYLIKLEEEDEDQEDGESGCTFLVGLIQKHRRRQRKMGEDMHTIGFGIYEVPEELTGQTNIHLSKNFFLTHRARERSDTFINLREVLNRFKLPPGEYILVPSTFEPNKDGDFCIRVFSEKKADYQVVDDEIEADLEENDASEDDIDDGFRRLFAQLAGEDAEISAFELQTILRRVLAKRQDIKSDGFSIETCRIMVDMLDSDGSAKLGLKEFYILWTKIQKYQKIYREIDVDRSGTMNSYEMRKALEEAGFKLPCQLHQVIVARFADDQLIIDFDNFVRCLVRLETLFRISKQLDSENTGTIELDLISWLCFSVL
# cells = format: functional
# [13] = Trypanosoma cruzi growth suppression in host cells – NIH3T3 host cells, beta-gal luminescence, confirmation (AID 2044); format: functional, cell-based;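 further: intracellular parasites grown in NIH/3T3 mouse fibroblasts as host cells; luminescent beta-galactosidase reporter signal from transgenic T. cruzi replicating inside host cells; inhibitors lower the luminescence signal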
# [14] = NIH3T3 cell viability loss – ATP luminescence, mouse fibroblasts, counter-screen, dose response (AID 2010); format: functional, cell-based;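 further: cells exposed to compound for about 90 hours before reading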
# BJ [15] = assay: BJ-TERT fibroblast viability loss – cell-based, RAS-independent, luminescence, dose response (AID 1933); format: functional; details: Homo sapiens
# BJ [16] = assay: cells; format: functional, cell-based; details: Homo sapiens
# BJ [17] = assay: BJ-TERT-LT-ST fibroblast viability loss – cell-based, RAS-independent, luminescence, dose response (AID 1935); format: functional; details: Homo sapiens;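 further: BJ fibroblasts immortalized with TERT plus LT and ST oncogenes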
# [18] = DRD fibroblast viability loss – cell-based, non-viral oncogenic, luminescence, dose response (AID 1934); format: functional; details: Homo sapiens
# [19] = molecular target: T4, Carboxy-terminal domain RNA polymerase II polypeptide A small phosphatase 1 (Homo sapiens, UniProt Q9GZU7); assay: CTDSP1 inhibitors, concentration-response, biochemical, absorbance readout, ultra-high-throughput screen actives (AID 540297); format: functional
# T4 sequence (Q9GZU7 whole entry): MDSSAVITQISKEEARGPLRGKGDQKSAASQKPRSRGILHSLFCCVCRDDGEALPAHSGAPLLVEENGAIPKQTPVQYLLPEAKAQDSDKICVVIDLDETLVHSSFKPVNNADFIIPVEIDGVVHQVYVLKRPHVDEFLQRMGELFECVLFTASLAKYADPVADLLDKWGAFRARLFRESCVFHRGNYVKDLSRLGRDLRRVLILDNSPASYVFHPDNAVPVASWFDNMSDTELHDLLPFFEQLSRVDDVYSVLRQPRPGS
# [20] = microbe, parasite or virus in culture; format: functional; details: Mycobacterium tuberculosis
# Paired box protein Pax-8, sequence (Q06710 whole entry): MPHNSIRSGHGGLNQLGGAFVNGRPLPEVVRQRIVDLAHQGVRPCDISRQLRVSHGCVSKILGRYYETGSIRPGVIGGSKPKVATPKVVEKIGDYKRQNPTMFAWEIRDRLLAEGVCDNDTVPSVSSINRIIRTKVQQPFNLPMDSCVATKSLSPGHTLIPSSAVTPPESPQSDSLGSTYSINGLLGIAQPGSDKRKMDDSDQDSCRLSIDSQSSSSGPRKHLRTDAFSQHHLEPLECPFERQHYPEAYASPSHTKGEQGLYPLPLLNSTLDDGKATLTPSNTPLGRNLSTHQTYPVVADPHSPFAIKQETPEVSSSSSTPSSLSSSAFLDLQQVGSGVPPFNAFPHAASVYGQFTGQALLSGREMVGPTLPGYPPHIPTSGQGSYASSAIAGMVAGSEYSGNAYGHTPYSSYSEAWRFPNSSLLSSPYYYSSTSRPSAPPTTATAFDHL
# Genome polyprotein, sequence (P29990 2492-3391 limits assumed): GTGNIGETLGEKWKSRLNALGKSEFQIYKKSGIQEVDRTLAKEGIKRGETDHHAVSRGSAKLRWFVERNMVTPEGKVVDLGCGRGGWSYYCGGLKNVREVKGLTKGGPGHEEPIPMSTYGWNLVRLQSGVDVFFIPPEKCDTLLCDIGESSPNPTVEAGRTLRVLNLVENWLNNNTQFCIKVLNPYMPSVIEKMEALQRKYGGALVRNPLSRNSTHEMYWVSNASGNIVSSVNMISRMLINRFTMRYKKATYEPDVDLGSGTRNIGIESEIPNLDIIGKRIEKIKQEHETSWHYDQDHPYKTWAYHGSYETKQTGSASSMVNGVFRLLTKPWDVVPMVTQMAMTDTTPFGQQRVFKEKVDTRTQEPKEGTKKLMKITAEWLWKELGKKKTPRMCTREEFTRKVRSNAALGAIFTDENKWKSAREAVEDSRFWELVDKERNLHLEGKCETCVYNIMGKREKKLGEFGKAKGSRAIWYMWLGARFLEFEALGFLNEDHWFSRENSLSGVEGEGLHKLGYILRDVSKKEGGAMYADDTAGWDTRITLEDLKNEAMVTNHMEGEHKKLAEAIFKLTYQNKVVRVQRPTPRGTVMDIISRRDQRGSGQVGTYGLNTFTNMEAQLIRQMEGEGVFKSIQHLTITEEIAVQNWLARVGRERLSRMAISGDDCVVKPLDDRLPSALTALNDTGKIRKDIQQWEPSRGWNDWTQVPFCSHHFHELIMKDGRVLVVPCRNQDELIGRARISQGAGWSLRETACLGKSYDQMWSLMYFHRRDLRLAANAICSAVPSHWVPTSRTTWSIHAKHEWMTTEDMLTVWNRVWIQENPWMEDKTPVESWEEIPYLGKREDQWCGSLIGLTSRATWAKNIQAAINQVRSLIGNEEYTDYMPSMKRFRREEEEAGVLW
# Cytochrome P450 2D6, sequence (P10635 whole entry): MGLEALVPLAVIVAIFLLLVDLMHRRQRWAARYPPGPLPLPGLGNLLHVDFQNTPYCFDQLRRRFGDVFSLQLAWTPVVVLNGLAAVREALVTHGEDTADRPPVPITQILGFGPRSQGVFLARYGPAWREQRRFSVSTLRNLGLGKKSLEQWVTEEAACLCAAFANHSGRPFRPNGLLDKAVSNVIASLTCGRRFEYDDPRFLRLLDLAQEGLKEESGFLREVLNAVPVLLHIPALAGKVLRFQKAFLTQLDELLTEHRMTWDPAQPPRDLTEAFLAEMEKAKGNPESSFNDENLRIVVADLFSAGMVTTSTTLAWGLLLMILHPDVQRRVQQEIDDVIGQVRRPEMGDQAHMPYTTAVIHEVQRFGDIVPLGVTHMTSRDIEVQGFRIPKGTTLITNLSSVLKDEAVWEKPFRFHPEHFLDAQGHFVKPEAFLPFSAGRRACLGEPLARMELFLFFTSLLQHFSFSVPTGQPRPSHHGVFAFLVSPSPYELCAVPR
# Cytochrome P450 2C9, sequence (P11712 whole entry): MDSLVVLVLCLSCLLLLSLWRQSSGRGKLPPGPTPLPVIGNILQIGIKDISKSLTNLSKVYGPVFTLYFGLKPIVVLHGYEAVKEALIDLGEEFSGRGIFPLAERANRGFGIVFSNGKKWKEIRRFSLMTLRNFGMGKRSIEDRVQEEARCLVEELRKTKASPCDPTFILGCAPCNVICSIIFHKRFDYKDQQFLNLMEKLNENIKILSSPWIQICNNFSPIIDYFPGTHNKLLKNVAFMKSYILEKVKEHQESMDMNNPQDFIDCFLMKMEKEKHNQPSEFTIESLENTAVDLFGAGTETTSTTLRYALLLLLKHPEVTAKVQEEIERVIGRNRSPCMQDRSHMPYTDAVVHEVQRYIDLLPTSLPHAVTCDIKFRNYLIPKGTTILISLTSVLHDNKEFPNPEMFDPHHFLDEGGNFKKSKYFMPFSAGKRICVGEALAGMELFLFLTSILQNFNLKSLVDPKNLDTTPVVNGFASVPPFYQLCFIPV
# Nonstructural protein 1, sequence (Q194T2 whole entry): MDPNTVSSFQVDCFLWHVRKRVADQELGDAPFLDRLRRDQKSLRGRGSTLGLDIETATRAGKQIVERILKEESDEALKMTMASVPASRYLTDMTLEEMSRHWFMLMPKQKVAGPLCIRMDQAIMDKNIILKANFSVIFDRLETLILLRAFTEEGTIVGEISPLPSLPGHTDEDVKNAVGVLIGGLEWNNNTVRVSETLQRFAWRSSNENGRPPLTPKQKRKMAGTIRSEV
# Cytochrome P450 3A4, sequence (P08684 whole entry): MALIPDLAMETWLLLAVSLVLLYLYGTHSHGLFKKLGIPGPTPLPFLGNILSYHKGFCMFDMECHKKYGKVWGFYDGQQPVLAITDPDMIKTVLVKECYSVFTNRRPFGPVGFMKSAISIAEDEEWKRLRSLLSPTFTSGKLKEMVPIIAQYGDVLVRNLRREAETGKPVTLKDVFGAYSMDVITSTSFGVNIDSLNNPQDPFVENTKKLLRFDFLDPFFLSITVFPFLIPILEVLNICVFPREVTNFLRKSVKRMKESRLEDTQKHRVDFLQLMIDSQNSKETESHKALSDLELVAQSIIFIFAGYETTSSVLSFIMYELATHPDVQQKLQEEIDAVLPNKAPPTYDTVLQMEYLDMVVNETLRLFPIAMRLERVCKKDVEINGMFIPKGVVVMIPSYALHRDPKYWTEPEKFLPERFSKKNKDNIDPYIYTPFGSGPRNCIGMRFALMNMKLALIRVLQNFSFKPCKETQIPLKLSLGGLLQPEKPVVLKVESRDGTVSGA
# Luciferin 4-monooxygenase, sequence (P08659 whole entry): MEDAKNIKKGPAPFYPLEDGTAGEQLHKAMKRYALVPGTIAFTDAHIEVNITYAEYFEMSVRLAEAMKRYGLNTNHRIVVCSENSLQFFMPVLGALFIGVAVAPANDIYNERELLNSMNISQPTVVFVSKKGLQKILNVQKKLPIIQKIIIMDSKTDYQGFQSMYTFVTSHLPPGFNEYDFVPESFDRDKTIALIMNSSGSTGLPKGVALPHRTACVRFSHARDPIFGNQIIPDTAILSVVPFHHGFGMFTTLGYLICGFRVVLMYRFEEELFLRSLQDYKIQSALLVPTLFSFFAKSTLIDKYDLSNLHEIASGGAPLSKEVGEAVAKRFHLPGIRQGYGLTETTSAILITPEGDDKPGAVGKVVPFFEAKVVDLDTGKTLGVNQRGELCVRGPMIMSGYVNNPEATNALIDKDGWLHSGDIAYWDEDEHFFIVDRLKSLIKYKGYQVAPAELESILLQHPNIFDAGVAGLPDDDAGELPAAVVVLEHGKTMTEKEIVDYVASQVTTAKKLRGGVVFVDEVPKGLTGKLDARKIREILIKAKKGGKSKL
# FAD-linked sulfhydryl oxidase ALR, sequence (P55789 whole entry): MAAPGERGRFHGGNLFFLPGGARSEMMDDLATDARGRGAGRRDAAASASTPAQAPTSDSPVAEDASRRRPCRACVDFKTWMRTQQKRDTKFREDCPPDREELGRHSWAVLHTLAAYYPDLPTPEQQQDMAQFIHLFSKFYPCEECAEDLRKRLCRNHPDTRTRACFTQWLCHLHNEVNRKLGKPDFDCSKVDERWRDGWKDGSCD
# Cytochrome P450 2C19, sequence (P33261 whole entry): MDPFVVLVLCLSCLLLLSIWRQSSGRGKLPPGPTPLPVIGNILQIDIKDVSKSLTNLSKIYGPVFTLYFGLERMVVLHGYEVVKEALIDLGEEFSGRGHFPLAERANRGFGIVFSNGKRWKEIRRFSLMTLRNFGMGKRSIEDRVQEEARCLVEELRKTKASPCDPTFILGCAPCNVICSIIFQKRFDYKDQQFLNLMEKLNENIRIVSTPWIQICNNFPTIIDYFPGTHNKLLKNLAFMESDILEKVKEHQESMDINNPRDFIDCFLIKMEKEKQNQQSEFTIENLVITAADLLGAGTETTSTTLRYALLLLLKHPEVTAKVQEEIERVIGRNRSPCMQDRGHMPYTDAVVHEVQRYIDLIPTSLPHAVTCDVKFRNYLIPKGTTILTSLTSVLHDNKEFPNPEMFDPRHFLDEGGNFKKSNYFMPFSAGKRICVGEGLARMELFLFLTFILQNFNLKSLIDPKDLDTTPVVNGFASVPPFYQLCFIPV
compound,measurement,setting,value
Clc1ccc(N/N=C/c2cccnc2)cc1,AC50,[1],4.65 µM (active)
same,AC50,[2],0.426 µM (active)
same,AC50,HeLa,41.7 µM (active)
COc1cc(-c2cnc3c(NC=O)cc(-c4cccc(NC(C)=O)c4)cn23)cc(OC)c1OC,IC50,H9c2,> 79 µM (inactive)
same,AC50,Paired box protein Pax-8,2.88 µM (active)
CC(=O)c1cccc(NC(=O)Cc2ccc3c(c2)CCCC3)c1,AC50,Cytochrome P450 2C19,3.16 µM (inconclusive)
same,AC50,Cytochrome P450 2D6,4.47 µM (inconclusive)
same,AC50,Cytochrome P450 1A2,25.1 µM (inconclusive)
same,AC50,Cytochrome P450 2C9,inconclusive
CNc1nc(Cl)nc(NC(C)(C)C)n1,EC50,[3],12.7 µM (active)
same,EC50,[4],> 120 µM (not active)
same,EC50,[5],> 120 µM (not active)
same,AC50,Cytochrome P450 2C9,inconclusive
Oc1ccc(/C=N/Nc2cccc(Cl)n2)c(O)c1,EC50,[6],1.66 µM (active)
same,EC50,[7],1.39 µM (active)
same,AC50,HeLa,316 µM (active)
same,IC50,[8],29 µM (active)
O=C(CN1C(=O)c2ccccc2C1=O)NCC(=O)OCC(=O)c1ccc(Br)cc1,AC50,Cytochrome P450 3A4,3.55 µM (inconclusive)
same,AC50,Cytochrome P450 2C9,inconclusive
CCCCCc1cc(=O)oc2c(C(CCN(CC)CC)c3ccc(N(C)C)cc3)c(OC)cc(OC)c12 (stereo not given),IC50,Nonstructural protein 1,9.17 µM (active)
COc1ccc(C2/C=C\CN(S(=O)(=O)c3ccc(C)cc3)[C@H](Cc3ccccc3)C(=O)N2Cc2ccc(F)cc2)cc1 (stereo not given in full),AC50,[9],12.9 µM (active)
same,AC50,[10],> 70 µM (inactive)
same,AC50,[11],25.5 µM (active)
CCOC(=O)C1=NN(c2ccccc2)C(=O)/C1=C\c1ccc(N(C)C)cc1,IC50,Nonstructural protein 1,> 100 µM (active)
O=C(Cc1ccc(Cl)cc1)Nc1ccc(N2CCN(C(=O)c3ccco3)CC2)cc1,AC50,[9],> 70 µM (inactive)
same,AC50,[10],> 70 µM (inactive)
same,AC50,[11],6.62 µM (active)
CCNC(=O)C(=O)N/N=C/c1cc([N+](=O)[O-])ccc1O,IC50,Nonstructural protein 1,2.44 µM (active)
O=C1NC(=O)C(=Cc2ccc3ccccc3c2)C(=O)N1,IC50,Genome polyprotein,50.8 µM (active)
Cc1ccc(C(=O)Oc2cccc(-n3cnnn3)c2)cc1,IC50,[12],10.5 µM (not active)
same,IC50,cells,13.7 µM (active)
same,AC50,HeLa,> 350 µM (inactive)
C=CS(=O)(=O)c1sc(Cl)c(N2CCOCC2)c1[N+](=O)[O-],EC50,[13],5.42 µM (active)
same,EC50,[14],7.27 µM (active)
same,IC50,Genome polyprotein,11 µM (active)
same,AC50,[9],1.31 µM (active)
same,AC50,[11],13.3 µM (active)
Cn1c(=O)c2cc(S(=O)(=O)NCCC(=O)NCc3ccccc3Cl)ccc2n(C)c1=O,AC50,Cytochrome P450 2D6,17.8 µM (inconclusive)
same,AC50,Cytochrome P450 2C9,inconclusive
C=CC[C@H](CC(=O)N(CCO)Cc1ccccc1)C(=O)N[C@@H](COC(=O)[C@H](CC=C)CC(=O)OC(C)(C)C)Cc1c[nH]c2ccccc12,AC50,Paired box protein Pax-8,15.9 µM (active)
CCNc1ncc2nc(-c3cn(C)c4ccccc34)c(=O)n(-c3ccccc3)c2n1,AC50,Cytochrome P450 2D6,25.1 µM (inconclusive)
same,AC50,Cytochrome P450 1A2,15.8 µM (inconclusive)
same,AC50,Cytochrome P450 3A4,6.31 µM (inconclusive)
same,AC50,Cytochrome P450 2C9,inconclusive
C[C@@H]1CCCCO[C@@H](CN(C)Cc2ccc(C(F)(F)F)cc2)[C@H](C)CN([C@H](C)CO)C(=O)c2cc(NS(=O)(=O)c3ccc(Cl)cc3)ccc2O1,AC50,Paired box protein Pax-8,8.48 µM (active)
O=S1(=O)N=C(N/N=C/c2ccccn2)c2ccccc21,IC50,Nonstructural protein 1,3.27 µM (active)
O=C(Cn1cncn1)N/N=C/c1ccccc1O,IC50,Nonstructural protein 1,22.1 µM (active)
COC(=O)C1=CN(c2cccc(C)c2)C=C(C(=O)OC)C1c1cc(OC)c(O)c([N+](=O)[O-])c1,IC50,Genome polyprotein,56.5 µM (active)
Cc1ccc(C(=O)c2cc3ccccc3o2)cc1[N+](=O)[O-],EC50,BJ [15],> 150 µM (not active)
same,EC50,BJ [16],> 150 µM (not active)
same,EC50,BJ [17],> 150 µM (inconclusive)
same,EC50,[18],> 150 µM (not active)
COc1ccc(OCC(=O)NNC(=O)c2ccc(-c3ccccc3)cc2)cc1,IC50,[19],7.77 µM (active)
same,AC50,Cytochrome P450 2C9,inconclusive
COc1cccc(/C=N/N2C(=O)CSC2=S)c1O,IC50,Nonstructural protein 1,2.19 µM (active)
CC(=O)N=C(N)Nc1nc(=O)c2ccccc2s1,AC50,HeLa,69.2 µM (active)
CC(C)(C)C(=O)N1CCN(c2ccc(NC(=O)c3ccc([N+](=O)[O-])o3)cc2)CC1,CC50,[20],2.96 µM (active)
same,AC50,[9],2.45 µM (active)
same,AC50,[10],> 70 µM (inactive)
same,AC50,[11],7.74 µM (active)
